# Values joined by “and” are separate entries in the source; they are usually repeats but may differ in a detail not shown here. Equal values may be shown once. Read-outs that look alike come from different tables or passages of the source.
# Columns and labels:
# [1] = test system: metastatic pancreatic cancer patients; assay: Placebo-controlled, randomized phase 2 study plus gemcitabine; format: in vivo, human; settings: for 6-Month OS Rate (95% CI) / 12-Month OS Rate (95% CI) / Median OS, Months (95% CI) / Median PFS, Months (95% CI): conatumumab 10 mg/kg Q2W or ganitumab 12 mg/kg Q2W; for Stratified HR (95% CI), OS / Stratified HR (95% CI), PFS: versus placebo plus gemcitabine
# Description: The primary endpoint was six month overall survival rate.
# Key inclusion criteria were histologically or cytologically documented metastatic adenocarcinoma of the pancreas, age eighteen years or older, ECOG PS 0 or 1, adequate hematologic, hepatic, renal, and coagulation function, amylase and lipase≦2.0×ULN, adequately controlled type 1 or 2 diabetes (amended during protocol to fasting blood glucose<[…] only), fasting blood glucose≦[…], HbAlc<8%, and written informed consent.
# Key exclusion criteria were uncontrolled cardiac disease and prior chemotherapy or radiation in the adjuvant or metastatic setting.
# [2] = test system: tumors in human subjects
# Description: Each subject was assigned to one of six dosing cohorts. […] The subjects also received individualized palliative care, as appropriate, to reduce the severity of their symptoms.
# Response to treatment was assessed using the Response Evaluation Criteria in Solid Tumors (RECIST) criteria as described in Therasse et al. 2000, J Natl Cancer Inst. […] Briefly, prior to administration of the first dose, each subject was given a computerized tomography (CT) scan to determine the length of the largest measurable tumor along its longest diameter (“Baseline TM (cm)” in Table 9). CT scans were used to measure the same tumors along the same diameter at certain points after initiation of treatment (“Day X Tumor (cm)” in Table 9). Each such measurement was compared to the baseline tumor measurement for the same subject to calculate the percent increase or decrease in tumor size.
# [3] = test system: metastatic pancreatic cancer patients; assay: Overall survival in baseline circulating biomarker subgroups of the phase 2 study; format: in vivo, human; set-up: Median OS: unit not given here
# From the text: To establish the relationship between levels of these baseline markers and overall survival, a Cox proportional hazard model was used to calculate hazard ratios (HR) using normalized log transformed marker concentrations. This analysis tests the risk of death associated with a unit increase in the normalized log baseline biomarker and this risk is expressed as a hazard ratio. Because of the small sample size, it is difficult to dissect prognostic associations from relationships that are modified by treatment with ganitumab relative to placebo, i.e., predictive. This is because the addition of treatment effect adds a variable to the analysis that compromises the power of the test masking significant predictive relationships that may exist. However even a prognostic relationship identified in this analysis is important because it informs the hypothesized relationship between circulating bioavailable ligands and the adaptation of the tumor to IGF-1R dependent progression, and in turn sensitivity to inhibitors that block IGF-1R or downstream signaling pathways.
# This allows a direct test of the predictive value of using these markers in a dichotomized way to predict OS in pancreatic cancer patients that are treated with inhibitors of IGF-1R.
# To represent these relationships Kaplan-Maier plots were generated that show the OS for the high and low subgroups by plotting the fraction of patients in each sub-group that survive against time.
# [4] = test system: colorectal cancer (CRC); settings: Study Drug 6 mg/kg + panitumumab 6 mg/kg
# From the text: Another study was done in subjects with colorectal cancer (CRC).
# [5] = test system: non-CRC tumors; settings: Study Drug 6 mg/kg + panitumumab 6 mg/kg
# [6] = test system: metastatic pancreatic cancer patients; settings: for OS, HR (95% CI) for one unit increment in logAUCss / PFS, HR (95% CI) for one unit increment in logAUCss: univariate Cox model
# Description: Multivariate analysis was performed to evaluate the effect of exposure on OS and PFS adjusting for potential confounding factors using Cox proportional hazard models with a forward selection technique. All baseline factors were initial candidates in the forward selection model. Only the most statistically significant variables were added to the final model after the forward selection process.
# The effect of exposure on the incidence of selected adverse events (hearing and vestibular disorders, hepatic disorders, hyperglycemia, infusion reaction, neutropenia, rash and skin-related toxicity, thrombocytopenia, and venous embolic and thrombotic events) was summarized with descriptive statistics.
# The effect of exposure on changes in selected laboratory values (aspartate transaminase, alanine transaminase, fasting glucose, total neutrophils, and platelets) was assessed by linear regression.
# [7] = patients with measurable disease at baseline, plus gemcitabine
# [8] = plus gemcitabine, listed as ganitumab
# [9] = Subject #1, Nerve Sheath, 3 mg/Kg
# [10] = Subject #4, Colorectal, 10 mg/Kg
# [11] = Subject #8, diagnosis Unknown, 1 mg/Kg
# [12] = Subject #10, Adenoid R eye, 20 mg/Kg
# [13] = Subject #11, Carcinoid, 3 mg/Kg
# [14] = Subject #11, Carcinoid, 3 mg/Kg cohort
# [15] = twelve subjects, 1 to 20 mg/kg, RECIST
# [16] = Ganitumab and Placebo (logAUCss = 0)
# [17] = multivariate Cox model, ganitumab-treated arm
substance,measurement,setting,value
Ganitumab,Best Overall Response: Confirmed CR - n (%),[1]; [7],0 (0) n (%)
same,Best Overall Response: Confirmed PR - n (%),[1]; [7],4 (10) n (%)
same,Best Overall Response: PD - n (%),[1]; [7],13 (33) n (%)
same,Best Overall Response: SD (Includes Unconfirmed PR) - n (%),[1]; [7],16 (41) n (%)
same,Best Overall Response: Unconfirmed PR - n (%),[1]; [7],0 (0) n (%)
same,Best Overall Response: Unknown - n (%),[1]; [7],6 (15) n (%)
same,rate of SD+PR,[1]; plus gemcitabine,51%
same,6-Month OS Rate (95% CI),[1]; plus gemcitabine,"57% (41, 70)"
same,12-Month OS Rate (95% CI),[1]; plus gemcitabine,"39% (25, 54)"
same,"Median OS, Months (95% CI)",[1]; plus gemcitabine,"8.7 (5.3, 12.2) Months"
same,"Median PFS, Months (95% CI)",[1]; plus gemcitabine,"5.1 (2.8, 5.8) Months"
same,6-Month OS Rate (95% CI),[1]; [8],57%
same,12-Month OS Rate (95% CI),[1]; [8],39%
same,"Median OS, Months (95% CI)",[1]; [8],8.7 Months
same,"Median PFS, Months (95% CI)",[1]; [8],5.1 Months
same,"Stratified HR (95% CI), OS",[1],"0.67 (0.41, 1.12)"
same,"Stratified HR (95% CI), PFS",[1],"0.65 (0.41, 1.04)"
same,"Stratified HR (95% CI), OS",[1]; listed as ganitumab,0.67
same,"Stratified HR (95% CI), PFS",[1]; listed as ganitumab,0.65
same,time to significant symptomatic relief after the first dose,"[2]; CR subject, Ewing's sarcoma, 12 mg/kg",two
same,response according to RECIST at day 434,"[2]; CR subject, Ewing's sarcoma, 12 mg/kg at 14 day intervals",CR (100% reduction in tumor dimension)
same,"PET scan, uptake of labeled glucose by tumor","[2]; CR subject, Ewing's sarcoma, 12 mg/kg, day 50",no detectable uptake of labeled glucose
same,decrease in tumor size from baseline (RECIST),"[2]; CR subject, Ewing's sarcoma, 12 mg/kg, day 50, CT scan",78%
same,maximum RECIST tumor dimension reduction,"[2]; PR subject, mid gut carcinoid tumor, 3 mg/kg at 14 day intervals",63%
same,RECIST tumor dimension decrease,"[2]; PR subject, mid gut carcinoid tumor, 3 mg/kg, after 33 weeks in the trial",48%
same,RECIST tumor dimension,"[2]; PR subject, mid gut carcinoid tumor, 3 mg/kg, after 33 weeks in the trial, baseline 13.1 cm",6.8 cm
same,Day 50 Tumor (cm),[2]; [9],1.4 cm
same,"Day 50 Tumor, percent change vs baseline",[2]; [9],(+27%)
same,Day 50 Tumor (cm),"[2]; Subject #2, Prostate, 10 mg/Kg",18.8 cm
same,"Day 50 Tumor, percent change vs baseline","[2]; Subject #2, Prostate, 10 mg/Kg",(+21%)
same,Day 50 Tumor (cm),"[2]; Subject #3, Ovarian, 20 mg/Kg",18.6 cm
same,"Day 50 Tumor, percent change vs baseline","[2]; Subject #3, Ovarian, 20 mg/Kg",(+17%)
same,Day 50 Tumor (cm),[2]; [10],45.3 cm
same,"Day 50 Tumor, percent change vs baseline",[2]; [10],(+7%)
same,Day 50 Tumor (cm),"[2]; Subject #5, Thymus, 1 mg/Kg",10.4 cm
same,"Day 50 Tumor, percent change vs baseline","[2]; Subject #5, Thymus, 1 mg/Kg",(+4%)
same,Day 50 Tumor (cm),"[2]; Subject #6, Melanoma, 10 mg/Kg",28.4 cm
same,"Day 50 Tumor, percent change vs baseline","[2]; Subject #6, Melanoma, 10 mg/Kg",(+1%)
same,Day 50 Tumor (cm),"[2]; Subject #7, Adenoid, 1 mg/Kg",30.9 cm
same,"Day 50 Tumor, percent change vs baseline","[2]; Subject #7, Adenoid, 1 mg/Kg",(−1%)
same,Day 50 Tumor (cm),[2]; [11],18.2 cm
same,"Day 50 Tumor, percent change vs baseline",[2]; [11],(−2%)
same,Day 106 Tumor (cm),[2]; [11],18.9 cm
same,"Day 106 Tumor, percent change vs baseline",[2]; [11],(+2%)
same,Day 162 Tumor (cm),[2]; [11],23.2 cm
same,"Day 162 Tumor, percent change vs baseline",[2]; [11],(+25%)
same,Day 50 Tumor (cm),"[2]; Subject #9, Breast, 20 mg/Kg",4.7 cm
same,"Day 50 Tumor, percent change vs baseline","[2]; Subject #9, Breast, 20 mg/Kg",(−2%)
same,Day 50 Tumor (cm),[2]; [12],35.2 cm
same,"Day 50 Tumor, percent change vs baseline",[2]; [12],(−9%)
same,Day 50 Tumor (cm),[2]; [13],14 cm
same,"Day 50 Tumor, percent change vs baseline",[2]; [13],(+7%)
same,Day 106 Tumor (cm),[2]; [13],11 cm
same,"Day 106 Tumor, percent change vs baseline",[2]; [13],(−16%)
same,Day 169 Tumor (cm),[2]; [13],10.6 cm
same,"Day 169 Tumor, percent change vs baseline",[2]; [13],(−19%)
same,Day 225 Tumor (cm),[2]; [13],8.4 cm
same,"Day 225 Tumor, percent change vs baseline",[2]; [13],(−36%)
same,Day 281 Tumor (cm),[2]; [14],8.2 cm
same,"Day 281 Tumor, percent change vs baseline",[2]; [14],(−37%)
same,Day 338 Tumor (cm),[2]; [14],6.8 cm
same,"Day 338 Tumor, percent change vs baseline",[2]; [14],(−48%)
same,Day 50 Tumor (cm),"[2]; Subject #12, Ewing's, 12 mg/Kg",2.2 cm
same,"Day 50 Tumor, percent change vs baseline","[2]; Subject #12, Ewing's, 12 mg/Kg",(−78%)
same,"Day 85 Tumor, percent change vs baseline","[2]; Subject #12, Ewing's, 12 mg/Kg",(−100%)
same,Day 85 Tumor (cm),"[2]; Subject #12, Ewing's, 12 mg/Kg, listed as Study Drug",0 cm and 0.0 cm
same,number of subjects with a reduction in tumor size of at least 30%,[2]; [15],two
same,number of subjects with best response progressive disease (PD),[2]; [15],two
same,"difference in median OS, ganitumab treatment arm versus placebo arm",[3]; Free IGF-1 high subgroup,7.59 months
same,Median OS,[3]; IGF-2 High (>=median),368
same,"OS HR, treatment vs placebo",[3]; IGF-2 High (>=median),0.24
same,Median OS,[3]; IGF-2 Low (<median),217.5
same,"OS HR, treatment vs placebo",[3]; IGF-2 Low (<median),0.95
same,Median OS,[3]; IGF-BP1 High (>=median),170
same,"OS HR, treatment vs placebo",[3]; IGF-BP1 High (>=median),0.5
same,"OS HR, treatment vs placebo",[3]; IGF-BP1 Low (<median),0.41
same,Median OS,[3]; IGF-BP2 High (>=median),165
same,"OS HR, treatment vs placebo",[3]; IGF-BP2 High (>=median),0.69
same,Median OS,[3]; IGF-BP2 Low (<median),487
same,"OS HR, treatment vs placebo",[3]; IGF-BP2 Low (<median),0.19
same,Median OS,[3]; IGF-BP3 High (>=median),487
same,"OS HR, treatment vs placebo",[3]; IGF-BP3 High (>=median),0.28
same,Median OS,[3]; IGF-BP3 Low (<median),168
same,"OS HR, treatment vs placebo",[3]; IGF-BP3 Low (<median),0.94
same,Median OS,[3]; IGF-BP4 High (>=median),368
same,"OS HR, treatment vs placebo",[3]; IGF-BP4 High (>=median),0.39
same,Median OS,[3]; IGF-BP4 Low (<median),174.5
same,"OS HR, treatment vs placebo",[3]; IGF-BP4 Low (<median),0.63
same,Median OS,[3]; Total IGF-1 High (>=median),487
same,"OS HR, treatment vs placebo",[3]; Total IGF-1 High (>=median),0.25
same,Median OS,[3]; Total IGF-1 Low (<median),142
same,"OS HR, treatment vs placebo",[3]; Total IGF-1 Low (<median),0.59
same,Wk 8 change (RECIST),[4],−27%
same,Wk 8 change (WHO),[4]; CT,−39%
same,best response (WHO criteria),[5]; subject with a GE Junction tumor,stable disease
same,best response (WHO criteria),[5]; subject with a pancreatic tumor,stable disease
same,best response (WHO criteria),[5]; subject with a thyroid tumor,progressive disease
same,"OS, HR (95% CI) for one unit increment in logAUCss",[6]; Ganitumab Only,"0.0421 (0.0089, 0.1983)"
same,"PFS, HR (95% CI) for one unit increment in logAUCss",[6]; Ganitumab Only,"0.0611 (0.0160, 0.2327)"
same,"OS, HR (95% CI) for one unit increment in logAUCss",[6]; [16],"0.8288 (0.6978, 0.9845)"
same,"PFS, HR (95% CI) for one unit increment in logAUCss",[6]; [16],"0.8322 (0.7111, 0.9741)"
same,"Log AUCss HR, effect on Overall Survival",[6]; [17],0.0842
same,"Log AUCss HR, effect on Progression Free Survival",[6]; [17],0.1355
same,"Log AUCss Parameter Estimate, effect on Overall Survival",[6]; [17],−2.4742
same,"Log AUCss Parameter Estimate, effect on Progression Free Survival",[6]; [17],−1.9986
